Data reported in the supplement of paper PMC11781733.
Structures can show the parent of a compound that is named as a salt.

What was measured:
Conditions in all cases: exposure time: 15 min to 3 h acute
Dugesia japonica [1] = test: speed in dark vs vehicle (% change vs vehicle); higher = higher incidence or increase relative to vehicle control
Method in brief: (§1)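 Automated tracking recorded crawling speed of intact, fasted Dugesia japonica in the dark or under blue light, and values are reported as the median percent change relative to the plate's vehicle median. Worms sat singly in wells of a 48-well plate in 200 μL and were tested 15 min to 3 h after exposure in 0.5% DMSO or water vehicle. Worms that crawled out were left out, with eight per concentration per plate in technical triplicate (n = 24).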

Dugesia japonica [2] = test: pharynx extrusion incidence (% planarians (vehicle-normalised)); higher = higher incidence or increase relative to vehicle control
Method in brief: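 Blind manual scoring of pharynx extrusion, treated as a body-shape category, was done on intact, fasted Dugesia japonica. Worms sat singly in 200 μL per well of a 48-well plate, in water or 0.5% DMSO vehicle, and were tested between 15 min and 3 h after exposure. Eight worms per concentration per plate were run in technical triplicate (n = 24), and any that crawled out were excluded. The incidence was normalised to in-plate vehicle controls, with negatives set to 0.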

Dugesia japonica [3] = test: anxiety (time in outer well region) vs vehicle (% change vs vehicle); higher = higher incidence or increase relative to vehicle control
Method in brief: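 D. japonica planarians (fasted 5–7 days), one per well in 200 μL in sealed 48-well plates, were exposed to at least 5 concentrations (n = 24 per concentration, technical triplicates) and screened within 15 minutes–3 hours. Time spent in the outer portion of the well was measured by object tracking in MATLAB or Python; worms that crawled out were excluded. Each worm's response was divided by, or reduced by, the plate vehicle median and multiplied by 100. The value is the median.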

Dugesia japonica [4] = test: resting fraction in dark vs vehicle (difference in fraction x100 vs vehicle); higher = higher incidence or increase relative to vehicle control
Method in brief: (§2)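 Automated tracking of intact, fasted Dugesia japonica, one worm per well of a 48-well plate in 200 μL, was used to measure the resting fraction in the dark or under blue light. Testing took place 15 min to 3 h after exposure in 0.5% DMSO or water vehicle. Each plate held eight worms per concentration, run in technical triplicate. For each worm, the plate's vehicle median was subtracted and the difference multiplied by 100; the median of these values is reported, with worms that crawled out excluded.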

Dugesia japonica [5] = test: total locomotor bursts minus vehicle (bursts difference vs vehicle); higher = higher incidence or increase relative to vehicle control
Method in brief: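 Fasted Dugesia japonica planarians were placed one per well in a sealed 48-well plate with 200 μL solution and exposed to half- or quarter-log concentration series, with 0.5% DMSO or water as vehicle. Testing took place 15 min–3 h after exposure, with technical triplicates totalling n = 24. Total locomotor bursts, an unstimulated behaviour, were scored by image-based object tracking, and the plate vehicle-control median was subtracted from each planarian's value without scaling. The reported value is the median normalised response, excluding worms that crawled out.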

Dugesia japonica [6] = test: crawl-out incidence (% planarians); higher = higher incidence or increase relative to vehicle control
Dugesia japonica [7] = test: corkscrew incidence (% planarians (vehicle-normalised)); higher = higher incidence or increase relative to vehicle control
Method in brief: (§3)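 A blinded researcher manually scored planarian body shapes (contraction, C-shape, corkscrew, hyperkinesis), leaving out any worm that crawled out of its well. The D. japonica worms had been fasted 5–7 days, kept one per well in 200 μL in sealed 48-well plates, and screened within 15 minutes–3 hours of exposure to at least 5 concentrations. Values give shape incidence ×100, normalised to vehicle controls in the same plate, with negatives set to 0.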

Dugesia japonica [8] = test: hyperkinesis incidence (% planarians (vehicle-normalised)); higher = higher incidence or increase relative to vehicle control
Method in brief: as §3

Dugesia japonica [9] = test: speed second 30 s blue light vs vehicle (% change vs vehicle); higher = higher incidence or increase relative to vehicle control
Method in brief: as §1

Dugesia japonica [10] = test: resting fraction in blue light vs vehicle (difference in fraction x100 vs vehicle); higher = higher incidence or increase relative to vehicle control
Method in brief: as §2

Dugesia japonica [11] = test: loss of phototaxis incidence (% planarians (vehicle-normalised)); higher = higher incidence or increase relative to vehicle control
Method in brief: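 Automated object tracking was used to score intact, fasted Dugesia japonica for loss of phototaxis as a yes/no outcome. Worms sat one per well in 200 μL on 48-well plates and were tested 15 min to 3 h after exposure in 0.5% DMSO or water vehicle. The incidence rate ×100 was normalised to in-plate vehicle controls, negatives were set to 0, and worms that crawled out were left out.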

Dugesia japonica [12] = test: C-shape incidence (% planarians (vehicle-normalised)); higher = higher incidence or increase relative to vehicle control
Method in brief: as §3

Dugesia japonica [13] = test: loss of heat-induced scrunching incidence (% planarians (vehicle-normalised)); higher = higher incidence or increase relative to vehicle control
Method in brief: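 D. japonica planarians (fasted 5–7 days), one per well in 200 μL in sealed 48-well plates, were exposed to at least 5 concentrations (n = 24 per concentration, technical triplicates). They were tested within 15 minutes–3 hours for scrunching in response to a noxious heat stimulus; worms that crawled out were excluded. The value is the incidence ×100 of worms without scrunching, normalised to in-plate vehicle controls, with negatives set to 0.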

Dugesia japonica [14] = test: speed first 30 s blue light vs vehicle (% change vs vehicle); higher = higher incidence or increase relative to vehicle control
Method in brief: as §1

Dugesia japonica [15] = test: stickiness incidence (% planarians (vehicle-normalised)); higher = higher incidence or increase relative to vehicle control
Method in brief: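 Fasted Dugesia japonica planarians, one per well of a sealed 48-well plate in 200 μL solution, were tested 15 min–3 h after exposure to half- or quarter-log concentration series. The vehicle was 0.5% DMSO or water. Stickiness was scored as a binary endpoint in the Stickiness assay, pooling technical triplicates (n = 24). Incidence was normalised to in-plate vehicle incidence, with negatives set to 0, and multiplied by 100. Crawled-out worms were excluded.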

Dugesia japonica [16] = test: any abnormal body shape incidence (% planarians (vehicle-normalised)); higher = higher incidence or increase relative to vehicle control
Method in brief: as §3

Dugesia japonica [17] = test: contracted body shape incidence (% planarians (vehicle-normalised)); higher = higher incidence or increase relative to vehicle control
Method in brief: as §3

Dugesia japonica [18] = test: noxious heat displacement strength vs vehicle (% change vs vehicle); higher = higher incidence or increase relative to vehicle control
Method in brief: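 Displacement strength under noxious heat was measured in the scrunching assay on intact, fasted Dugesia japonica, one per well of a 48-well plate in 200 μL. Worms were tested 15 min to 3 h after exposure in 0.5% DMSO or water vehicle, using automated object tracking. Eight worms per concentration per plate were run in technical triplicate (n = 24). Each worm was normalised to the plate's vehicle median, and the value is the median percent change; worms that crawled out were excluded.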

SMILES | speed in dark (Dugesia japonica [1]) | pharynx extrusion incidence (Dugesia japonica [2]) | anxiety (Dugesia japonica [3]) | resting fraction in dark (Dugesia japonica [4]) | total locomotor bursts minus vehicle (Dugesia japonica [5]) | crawl-out incidence (Dugesia japonica [6]) | corkscrew incidence (Dugesia japonica [7]) | hyperkinesis incidence (Dugesia japonica [8]) | speed second 30 s blue light (Dugesia japonica [9]) | resting fraction in blue light (Dugesia japonica [10]) | loss of phototaxis incidence (Dugesia japonica [11]) | C-shape incidence (Dugesia japonica [12]) | loss of heat-induced scrunching incidence (Dugesia japonica [13]) | speed first 30 s blue light (Dugesia japonica [14]) | stickiness incidence (Dugesia japonica [15]) | any abnormal body shape incidence (Dugesia japonica [16]) | contracted body shape incidence (Dugesia japonica [17]) | noxious heat displacement strength (Dugesia japonica [18])
CN1CCN(CCCN2c3ccccc3Sc3ccc(Cl)cc32)CC1 [prochloroperazine] (100 µM) | -72.3 | 0 | -100 | 77 | 0.25 | 29.2 | 5 | 0 | -92.9 | 82.2 | 76.5 | 35 | 75 | -91.1 | ≤ 0 | 70 | 75 | -41.6
CNCC[C@H](Oc1cccc2ccccc12)c1cccs1 [s-duloxetine] (3.16 µM) | 70.8 | 0 | 12 | -19 | -2.5 | 0 | 0 | 0 | 68.4 | -12.5 | ≤ 0 | 0 | 25 | 167 | 16.7 | 0 | 0 | -40.2
CNCC[C@H](Oc1cccc2ccccc12)c1cccs1 [s-duloxetine] (10 µM) | 124 | 0 | -1.76 | -32.6 | -13 | 0 | 0 | 75 | 34.6 | -12.1 | 50 | 0 | 8.33 | 142 | ≤ 0 | 75 | 0 | -38
CNCC[C@H](Oc1cccc2ccccc12)c1cccs1 [s-duloxetine] (31.6 µM) | -18.7 | 26.1 | -51.2 | -4.51 | 61 | 4.17 | 0 | 39.1 | -62.7 | 7.14 | 47.8 | 34.8 | 65.2 | -45.9 | ≤ 0 | 73.9 | 4.35 | -61.5
CNCC[C@H](Oc1cccc2ccccc12)c1cccs1 [s-duloxetine] (100 µM) | -50.6 | 65.2 | -57.1 | 55.5 | -4.5 | 4.17 | 0 | 0 | -87.5 | 72.3 | 56.5 | 13 | 73.9 | -84 | ≤ 0 | 82.6 | 34.8 | -66.8
CN[C@H]1CC[C@@H](c2ccc(Cl)c(Cl)c2)c2ccccc21 [sertraline hydrochloride] (3.16 µM) | -20.1 | 0 | 15.3 | 1.05 | 8 | 8.33 | 0 | 4.55 | -31.9 | 4.62 | 18.2 | 0 | ≤ 0 | -25.9 | 4.55 | 4.55 | 0 | -5.25
CN[C@H]1CC[C@@H](c2ccc(Cl)c(Cl)c2)c2ccccc21 [sertraline hydrochloride] (10 µM) | 24.4 | 0 | 1.96 | -1.57 | -9.5 | 0 | 0 | 0 | 0.96 | 0.73 | ≤ 0 | 0 | 33.3 | -16.8 | 4.17 | 0 | 0 | 27
CN[C@H]1CC[C@@H](c2ccc(Cl)c(Cl)c2)c2ccccc21 [sertraline hydrochloride] (31.6 µM) | -31.9 | 0 | 1.57 | -19.3 | 6.5 | 4.17 | 0 | 4.35 | -42.3 | 4.64 | ≤ 0 | 0 | 47.8 | -36 | 4.35 | 4.35 | 0 | 3.64
CN[C@H]1CC[C@@H](c2ccc(Cl)c(Cl)c2)c2ccccc21 [sertraline hydrochloride] (100 µM) | 7.78 | 0 | 17.1 | 4.98 | -5.25 | 4.17 | 0 | 91.3 | -33.9 | 3.91 | 4.35 | 0 | 21.7 | -33.7 | ≤ 0 | 91.3 | 0 | -27.1
